Measurements published in publication PMC7144120, “Psoralen Derivatives as Inhibitors of Mycobacterium tuberculosis Proteasome” (Molecules, 2020).
Entries after “also recorded” stand apart in the source; their conditions may differ. Like-named read-outs stand apart in the source and are kept apart here. *1 amine or outer side, *2 acyl side, *3 side chain or, on linkers, in order; H or OH if unused. Where a SMILES comes first, the peptide text is derived from it. The star is where a group is joined. AMC = Cc1cc(=O)oc2cc(N*)ccc12; Suc = O=C(CCC(=O)[*:2])[*:1]

Key:
Mtb proteasome [1] = target: T1, Mtb proteasome (Mycobacterium tuberculosis, UniProt P9WHT9); test: biochemical; format: biochemical; settings: for IC50: 50 µM Suc-LLVY-AMC, 30 min preincubation, 37 °C, triplicate, read-out: IC50 against the Mtb proteasome; for Hill Coefficient: from IC50 curve, Mtb proteasome
T1 construct: made in house

Mtb proteasome [2] = target: T1, Mtb proteasome; test: Determination of Ki and type of inhibition (varied substrate concentration, GraphPad Prism model fit); format: biochemical; settings: for Ki: best scoring inhibition model; for Type of Inhibition: best ranking model (mixed, competitive, noncompetitive, uncompetitive)
Protocol: The concentrations of 11, 13 and 15 were 0, 0.56, 0.81, 1.15, 1.65, 2.35, 4.80, 9.80 and 20 µM. Further, the concentrations for compound 8 were 0, 1.65, 2.35, 4.80, 9.80 µM and for bortezomib 0, 0.28, 0.40, 0.58, 0.82, 1.18, 2.40, 4.90 and 10 µM. All experiments were performed in triplicate. The resulting data were analyzed using the GraphPad Prism 6 software and were fitted to the software provided models for competitive, noncompetitive, uncompetitive and mixed type enzyme inhibition. The mode of inhibition and Ki values were chosen from the best ranking model, as determined by the software. Representative graphs (Michaelis-Menten, Dixon and Lineweaver-Burk plots) depicting the data fit for the best ranking model of inhibition for all compounds are shown in the Supplementary data (Figures S2–S19).

Mtb proteasome [3] = target: T1, Mtb proteasome; format: biochemical; settings: for Reversibility of inhibition: Mtb proteasome, 100-fold dilution after preincubation; for Reversibility of inhibition at lower concentrations: concentrations ≤ IC50
ß5i of IP = settings: cited from earlier work; for RA at 10 µM against ß5i of IP: residual activity of β5i in the presence of 10 μM compound; for IC50: read-out: IC50 against ß5i of IP; for Ki: read-out: Ki against ß5i of IP
[4] = tested on: Cc1cc(=O)oc2cc(NC(=O)[C@H](Cc3ccc(O)cc3)NC(=O)[C@@H](NC(=O)[C@H](CC(C)C)NC(=O)[C@H](CC(C)C)NC(=O)CCC(=O)O)C(C)C)ccc12; test: purified protein, by the assay type; settings: other: substrate of Mtb proteasome, 10 nM enzyme
Protocol: Additionally, the Km of the substrate Suc-LLVY-AMC was calculated based on the initial velocity of the enzymatic reaction using 10 nM Mtb proteasome at various concentration of the substrate (12.5, 25, 50, 100, 250, 500 µM).

Mtb proteasome [5] = target: T1, Mtb proteasome; parameters: method as in PMID 16468985; settings: substrate of Mtb proteasome; read-out: Km (literature value); cited from earlier work
Mtb proteasome [6] = target: T1, Mtb proteasome; test: Determination of kinact/Ki values for PR-957; format: biochemical; settings: 50 µM Suc-LLVY-AMC, 37 °C
Protocol: The kinetic assays were conducted as previously described in Enzymatic assays. Briefly, 7.8 μL of the Mtb proteasome (final concentration of 7 nM) in 20 mM HEPES buffer, pH = 7.5 with 0.5 mM EDTA was added to 0.2 μL of the compound solution at 100x final concentration in DMSO. The concentrations of PR-957 used were 0, 1.15, 1.65, 2.35, 4.80, 9.80 and 20 µM. The enzymatic reaction was initiated by the addition of 2 μL Suc-LLVY-AMC (final concentration of 50 μM) and the reaction progress was determined on a BioTek Synergy HT microplate reader, by monitoring fluorescence at 460 nm (λex = 360 nm) for 90 min at 37 °C. Values of kobs were derived from the fit of the data to the equation P = (vi/kobs)x [1 − exp(−kobs·t)] in GraphPadPrism. The data obtained were afterwards plotted against inhibitor concentration, to obtain kinact/Ki by fitting to the equation […]. The representative plots are presented in Supplementary data (Figure S33–S36).

T1 sequence (P9WHT9 whole entry, looked up): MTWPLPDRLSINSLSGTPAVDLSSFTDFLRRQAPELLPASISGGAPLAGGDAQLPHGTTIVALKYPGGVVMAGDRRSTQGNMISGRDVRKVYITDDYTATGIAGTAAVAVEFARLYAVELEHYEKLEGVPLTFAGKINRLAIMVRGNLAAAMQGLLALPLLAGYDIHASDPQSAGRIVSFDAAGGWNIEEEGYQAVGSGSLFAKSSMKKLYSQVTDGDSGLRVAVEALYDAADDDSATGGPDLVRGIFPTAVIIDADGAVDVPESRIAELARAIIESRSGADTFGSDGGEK

Cc1c(CCC(=O)NCC#N)c(=O)oc2cc3occ(C(C)(C)C)c3cc12 [Compound 8]
IC50 (Mtb proteasome [1]): 3.7 ± 1.5 µM
Hill Coefficient (Mtb proteasome [1]): 1.05
α (mixed inhibition model) (Mtb proteasome [2]): 0.19
Ki (Mtb proteasome [2]; Ki): 5.6 µM
Type of Inhibition (Mtb proteasome [2]): mixed type of inhibition
Reversibility of inhibition (Mtb proteasome [3]): reversible inhibitors; also recorded: Reversible inhibition
RA at 10 µM against ß5i of IP (ß5i of IP): 100%

Cc1c(CCC(=O)ON2C(=O)CCC2=O)c(=O)oc2cc3occ(-c4ccco4)c3cc12 [Compound 11]
IC50 (Mtb proteasome [1]): 8.8 ± 1 µM
Hill Coefficient (Mtb proteasome [1]): 0.90
α (mixed inhibition model) (Mtb proteasome [2]): 6.67
Ki (Mtb proteasome [2]; Ki): 4.2 µM
Type of Inhibition (Mtb proteasome [2]): mixed type of inhibition
Reversibility of inhibition (Mtb proteasome [3]): partially reversible inhibition; also recorded: (Partially) reversible inhibition
Reversibility of inhibition at lower concentrations (Mtb proteasome [3]): reversible inhibition
IC50 (ß5i of IP): 0.94 µM

Cc1cc(-c2coc3cc4oc(=O)c(CC(=O)ON5C(=O)CCC5=O)c(C)c4cc23)c(C)s1 [Compound 13]
IC50 (Mtb proteasome [1]): 3.2 ± 0.3 µM
Hill Coefficient (Mtb proteasome [1]): 0.90
Ki (Mtb proteasome [2]; Ki): 1.1 µM
Type of Inhibition (Mtb proteasome [2]): mixed type of inhibition
Reversibility of inhibition (Mtb proteasome [3]): partially reversible inhibition; also recorded: (Partially) reversible inhibition
Reversibility of inhibition at lower concentrations (Mtb proteasome [3]): reversible inhibition
IC50 (ß5i of IP): 4.4 µM

Cc1c(CCC=O)c(=O)oc2cc3c(cc12)C(c1ccccc1)CO3 (centres unmarked) [Compound 15]
IC50 (Mtb proteasome [1]): 5.8 ± 2.1 µM
Hill Coefficient (Mtb proteasome [1]): 0.55
α (mixed inhibition model) (Mtb proteasome [2]): 0.22
Type of Inhibition (Mtb proteasome [2]): mixed type of inhibition
Ki (Mtb proteasome [2]; read-out: Ki): 14.9 µM
Reversibility of inhibition (Mtb proteasome [3]): reversible inhibitors; also recorded: Reversible inhibition

CC(C)C[C@H](NC(=O)[C@H](Cc1ccccc1)NC(=O)c1cnccn1)B(O)O [Bortezomib, reference compound]
IC50 (Mtb proteasome [1]): 0.11 ± 0.03 µM
Hill Coefficient (Mtb proteasome [1]): 0.76
α (mixed inhibition model) (Mtb proteasome [2]): 0.85
Ki (Mtb proteasome [2]; Ki): 0.133 µM
Type of Inhibition (Mtb proteasome [2]): Mixed inhibition
Type of Inhibition (Mtb proteasome [2]; listed as bortezomib): mixed type of inhibition
proteasome activity retained (Mtb proteasome [3]; 5 × IC50 concentration, 0-, 15-, 30- or 60-min preincubation at 25 °C): approximately 55%
Reversibility of inhibition (Mtb proteasome [3]): (Slow) reversible inhibition
Reversibility of inhibition (Mtb proteasome [3]; listed as bortezomib): “slow/partially” reversible
loss of enzyme activity compared to the DMSO control (Mtb proteasome [3]; concentrations equal or higher than IC50, longer preincubation time): ≤ 45%
IC50 (ß5i of IP): 0.004 µM

Mtb proteasome (Mycobacterium tuberculosis H37Rv)
Km [4]: ^aKi determined with GraphPad Prism by fitting the data to several inhibition models (mixed, competitive, noncompetitive, uncompetitive). The best scoring model was further examined by creating Dixon, Lineweaver-Burk and Michaelis-Menten plots. Km for Suc-LLVY-AMC is 60 ± 15 µM (see Supplementary data for details). ND, not determined. ^b The data were calculated as residual activities (RAs) of β5i in the presence of 10 μM of each compound (standard errors for RAs were < 15%). µM

Cc1cc(=O)oc2cc(NC(=O)[C@H](Cc3ccc(O)cc3)NC(=O)[C@@H](NC(=O)[C@H](CC(C)C)NC(=O)[C@H](CC(C)C)NC(=O)CCC(=O)O)C(C)C)ccc12 [Suc-LLVY-AMC] (Suc-LLVY-{AMC})
Km (Mtb proteasome [5]): 56 ± 15 µM

COc1ccc(C[C@H](NC(=O)[C@H](C)NC(=O)CN2CCOCC2)C(=O)N[C@@H](Cc2ccccc2)C(=O)[C@@]2(C)CO2)cc1 [PR-957, reference compound]
IC50 (Mtb proteasome [1]): 2.2 ± 1 µM
Hill Coefficient (Mtb proteasome [1]): 0.91
Type of Inhibition (Mtb proteasome [2]): Noncompetitive inhibition
Ki (Mtb proteasome [2]; read-out: Ki): 5.2 µM
Reversibility of inhibition (Mtb proteasome [3]): irreversibly inhibited; also recorded: Irreversible inhibition
recovery of proteasome activity (Mtb proteasome [3]; concentration equal or higher than IC50): no significant recovery of proteasome activity; also recorded: completely inhibited the enzyme
kinact/KI (Mtb proteasome [6]): 96 M⁻¹ s⁻¹
IC50 (ß5i of IP): 0.015 µM

Cc1c(CC(=O)NCC#N)c(=O)oc2cc3occ(-c4ccco4)c3cc12 [Compound 64]
RA at 100 µM against Mtb (Mtb proteasome [1]): 91%
RA at 10 µM against ß5i of IP (ß5i of IP): 98%

COc1ccc(-c2coc3cc4oc(=O)c(CCC(=O)ON5C(=O)CCC5=O)c(C)c4cc23)cc1 [Compound 68]
RA at 100 µM against Mtb (Mtb proteasome [1]): 93%
IC50 (ß5i of IP): 0.64 ± 0.13 µM

Cc1cc(-c2coc3cc4oc(=O)c(CC(=O)O)c(C)c4cc23)c(C)s1 [Compound 30]
RA at 100 µM against Mtb (Mtb proteasome [1]): 93%
Ki (ß5i of IP): 36.5 ± 7.1 µM

Cc1c(CCC(=O)O)c(=O)oc2cc3occ(-c4ccco4)c3cc12 [Compound 22]
RA at 100 µM against Mtb (Mtb proteasome [1]): 55%
Ki (ß5i of IP): 116 ± 27 µM

COc1cccc(-c2coc3cc4oc(=O)c(CCC(=O)O)c(C)c4cc23)c1 [Compound 18]
RA at 100 µM against Mtb (Mtb proteasome [1]): 100%
Ki (ß5i of IP): 29.6 ± 3.9 µM
